What all share (experiment): relative viability (nuclei count vs DMSO), 5 days (fraction); higher = more cells survive
Compound in the assay “BI-2536 + Foretinib”: CC[C@@H]1C(=O)N(C)c2cnc(Nc3ccc(C(=O)NC4CCN(C)CC4)cc3OC)nc2N1C1CCCC1 [BI-2536] + COc1cc2c(Oc3ccc(NC(=O)C4(C(=O)Nc5ccc(F)cc5)CC4)cc3F)ccnc2cc1OCCCN1CCOCC1 [Foretinib] (partner 0.25 µM)
In a few lines:
(§1)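 Each reported value is a median over duplicate plates. It expresses relative viability: treated-well nuclei count divided by vehicle-well nuclei count. Lung cancer cell lines in 1536-well plates were dosed by pin tool a day after seeding, alone with one drug or with a fixed anchor-drug dose plus five library-drug doses (not always all listed) in √10 steps, and nuclei were counted after 5 days.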

Compound in the assay “NPK76-II-72-1 + AZD7762”: CC1CC(=O)N(C2=CN=C(N=C2N1C3CCCC3)NC4=C(C=C(C=C4)C(=O)NC5CCN(CC5)C)OC)C [NPK76-II-72-1] + NC(=O)Nc1cc(-c2cccc(F)c2)sc1C(=O)N[C@H]1CCCNC1 [AZD7762] (partner 0.2 µM)
In a few lines: as §1

Compound in the assay “NPK76-II-72-1 + Olaparib”: CC1CC(=O)N(C2=CN=C(N=C2N1C3CCCC3)NC4=C(C=C(C=C4)C(=O)NC5CCN(CC5)C)OC)C [NPK76-II-72-1] + O=C(c1cc(Cc2n[nH]c(=O)c3ccccc23)ccc1F)N1CCN(C(=O)C2CC2)CC1 [Olaparib] (partner 8 µM)
Summed up:
as §1

Compound in the assay “BI-2536 + Crizotinib”: CC[C@@H]1C(=O)N(C)c2cnc(Nc3ccc(C(=O)NC4CCN(C)CC4)cc3OC)nc2N1C1CCCC1 [BI-2536] + C[C@@H](Oc1cc(-c2cnn(C3CCNCC3)c2)cnc1N)c1c(Cl)ccc(F)c1Cl [Crizotinib] (partner 1 µM)
In a few lines: as §1

The values below come from the supplement of paper PMC10307832.

NCI-H1793: the relative viability in the assay with BI-2536 + Foretinib (first compound 0.01 µM) is 0.585; with BI-2536 + Foretinib (first compound 0.03162 µM), 0.364; in the assay with BI-2536 + Foretinib (first compound 0.1 µM), 0.202; with BI-2536 + Foretinib (first compound 0.3162 µM) it was 0.164; with BI-2536 + Foretinib (first compound 1 µM) it was 0.173; with NPK76-II-72-1 + AZD7762 (first compound 0.03162 µM), 0.69. Moreover, the relative viability with NPK76-II-72-1 + AZD7762 (first compound 0.1 µM) was found to be 0.618; in the assay with NPK76-II-72-1 + AZD7762 (first compound 0.3162 µM), 0.238; with NPK76-II-72-1 + AZD7762 (first compound 1 µM) it was 0.566; with NPK76-II-72-1 + Olaparib (first compound 0.03162 µM) it was 0.985; with NPK76-II-72-1 + Olaparib (first compound 0.1 µM), 1.02; with NPK76-II-72-1 + Olaparib (first compound 0.3162 µM), 0.589. For the same cell line, the relative viability with NPK76-II-72-1 + Olaparib (first compound 1 µM) amounted to 0.808.
In the case of NCI-H2009, the relative viability in the assay with BI-2536 + Foretinib (first compound 0.01 µM) worked out at 1.18; with BI-2536 + Foretinib (first compound 0.03162 µM), 0.94; with BI-2536 + Foretinib (first compound 0.1 µM), 0.547; with BI-2536 + Foretinib (first compound 0.3162 µM) it was 0.265; with BI-2536 + Foretinib (first compound 1 µM) it was 0.279; in the assay with BI-2536 + Crizotinib (first compound 0.01 µM), 0.962. Besides, the relative viability with BI-2536 + Crizotinib (first compound 0.03162 µM) was 0.696; with BI-2536 + Crizotinib (first compound 0.1 µM), 0.287; with BI-2536 + Crizotinib (first compound 0.3162 µM), 0.191; in the assay with BI-2536 + Crizotinib (first compound 1 µM), 0.16; in the assay with NPK76-II-72-1 + Olaparib (first compound 0.01 µM), 0.652; with NPK76-II-72-1 + Olaparib (first compound 0.03162 µM), 0.787. Further, the relative viability came to 0.675 with NPK76-II-72-1 + Olaparib (first compound 0.1 µM), 0.686 with NPK76-II-72-1 + Olaparib (first compound 0.3162 µM) and 0.64 in the assay with NPK76-II-72-1 + Olaparib (first compound 1 µM).
On to NCI-H2023, for which the relative viability with BI-2536 + Foretinib (first compound 0.01 µM) came to 0.864; in the assay with BI-2536 + Foretinib (first compound 0.03162 µM), 0.914; in the assay with BI-2536 + Foretinib (first compound 0.1 µM), 0.671; with BI-2536 + Foretinib (first compound 0.3162 µM), 0.0855; with BI-2536 + Foretinib (first compound 1 µM), 0.0903; in the assay with BI-2536 + Crizotinib (first compound 0.01 µM), 0.582. In addition, the relative viability in the assay with BI-2536 + Crizotinib (first compound 0.03162 µM) was 0.493; with BI-2536 + Crizotinib (first compound 0.1 µM), 0.346; in the assay with BI-2536 + Crizotinib (first compound 0.3162 µM), 0.0851; with BI-2536 + Crizotinib (first compound 1 µM) it was 0.0743; in the assay with NPK76-II-72-1 + Olaparib (first compound 0.01 µM), 0.469; with NPK76-II-72-1 + Olaparib (first compound 0.03162 µM), 0.57. Besides, the relative viability came to 0.561 in the assay with NPK76-II-72-1 + Olaparib (first compound 0.1 µM), 0.425 in the assay with NPK76-II-72-1 + Olaparib (first compound 0.3162 µM) and 0.491 with NPK76-II-72-1 + Olaparib (first compound 1 µM).
As to NCI-H2228, the relative viability is 1.05 with BI-2536 + Foretinib (first compound 0.01 µM); 0.583 in the assay with BI-2536 + Foretinib (first compound 0.03162 µM); 0.217 with BI-2536 + Foretinib (first compound 0.1 µM); 0.15 with BI-2536 + Foretinib (first compound 0.3162 µM); 0.156 in the assay with BI-2536 + Foretinib (first compound 1 µM); 0.547 with BI-2536 + Crizotinib (first compound 0.01 µM). Further, the relative viability was found to be 0.466 with BI-2536 + Crizotinib (first compound 0.03162 µM); 0.236 in the assay with BI-2536 + Crizotinib (first compound 0.1 µM); 0.207 with BI-2536 + Crizotinib (first compound 0.3162 µM); 0.172 with BI-2536 + Crizotinib (first compound 1 µM); 0.561 in the assay with NPK76-II-72-1 + Olaparib (first compound 0.01 µM); 0.666 with NPK76-II-72-1 + Olaparib (first compound 0.03162 µM). Also, the relative viability with NPK76-II-72-1 + Olaparib (first compound 0.1 µM) came to 0.841; with NPK76-II-72-1 + Olaparib (first compound 0.3162 µM) it was 0.597; with NPK76-II-72-1 + Olaparib (first compound 1 µM), 0.817.
With NCI-H2342, the relative viability turned out to be 1.01 with BI-2536 + Foretinib (first compound 0.01 µM); 0.973 with BI-2536 + Foretinib (first compound 0.03162 µM); 0.976 with BI-2536 + Foretinib (first compound 0.1 µM); 0.633 with BI-2536 + Foretinib (first compound 0.3162 µM); 0.357 in the assay with BI-2536 + Foretinib (first compound 1 µM); 0.501 in the assay with NPK76-II-72-1 + AZD7762 (first compound 0.01 µM). Further, the relative viability with NPK76-II-72-1 + AZD7762 (first compound 0.03162 µM) was determined as 0.435; with NPK76-II-72-1 + AZD7762 (first compound 0.1 µM), 0.673; in the assay with NPK76-II-72-1 + AZD7762 (first compound 0.3162 µM), 0.328; with NPK76-II-72-1 + AZD7762 (first compound 1 µM), 0.462; with NPK76-II-72-1 + Olaparib (first compound 0.01 µM) it was 0.393; with NPK76-II-72-1 + Olaparib (first compound 0.03162 µM), 0.377. In addition, the relative viability with NPK76-II-72-1 + Olaparib (first compound 0.1 µM) is 0.457; with NPK76-II-72-1 + Olaparib (first compound 0.3162 µM) it was 0.43; with NPK76-II-72-1 + Olaparib (first compound 1 µM) it was 0.535.
Consider SK-LU-1, for which the relative viability in the assay with BI-2536 + Foretinib (first compound 0.01 µM) worked out at 0.839; with BI-2536 + Foretinib (first compound 0.03162 µM), 0.778; with BI-2536 + Foretinib (first compound 0.1 µM) it was 0.291; with BI-2536 + Foretinib (first compound 0.3162 µM), 0.213; with BI-2536 + Foretinib (first compound 1 µM), 0.197; in the assay with BI-2536 + Crizotinib (first compound 0.01 µM), 0.857. For the same cell line, the relative viability was 0.51 with BI-2536 + Crizotinib (first compound 0.03162 µM); 0.357 with BI-2536 + Crizotinib (first compound 0.1 µM); 0.299 with BI-2536 + Crizotinib (first compound 0.3162 µM); 0.279 in the assay with BI-2536 + Crizotinib (first compound 1 µM); 0.432 with NPK76-II-72-1 + Olaparib (first compound 0.01 µM); 0.49 in the assay with NPK76-II-72-1 + Olaparib (first compound 0.03162 µM). Moreover, the relative viability was 0.475 with NPK76-II-72-1 + Olaparib (first compound 0.1 µM), 0.511 with NPK76-II-72-1 + Olaparib (first compound 0.3162 µM) and 0.587 with NPK76-II-72-1 + Olaparib (first compound 1 µM).
As for SK-MES-1, the relative viability is 0.926 with BI-2536 + Foretinib (first compound 0.01 µM); 0.778 in the assay with BI-2536 + Foretinib (first compound 0.03162 µM); 0.927 in the assay with BI-2536 + Foretinib (first compound 0.1 µM); 0.204 in the assay with BI-2536 + Foretinib (first compound 0.3162 µM); 0.168 in the assay with BI-2536 + Foretinib (first compound 1 µM); 0.997 with BI-2536 + Crizotinib (first compound 0.01 µM). Also, the relative viability stood at 1.01 with BI-2536 + Crizotinib (first compound 0.03162 µM); 0.86 with BI-2536 + Crizotinib (first compound 0.1 µM); 0.212 in the assay with BI-2536 + Crizotinib (first compound 0.3162 µM); 0.18 with BI-2536 + Crizotinib (first compound 1 µM); 0.646 with NPK76-II-72-1 + Olaparib (first compound 0.01 µM); 0.787 with NPK76-II-72-1 + Olaparib (first compound 0.03162 µM). The relative viability with NPK76-II-72-1 + Olaparib (first compound 0.1 µM) was found to be 0.794; with NPK76-II-72-1 + Olaparib (first compound 0.3162 µM), 0.746; with NPK76-II-72-1 + Olaparib (first compound 1 µM), 0.728.
In the case of SW 900, the relative viability stood at 0.775 with BI-2536 + Foretinib (first compound 0.01 µM); 0.8 with BI-2536 + Foretinib (first compound 0.03162 µM); 0.983 with BI-2536 + Foretinib (first compound 0.1 µM); 0.2 in the assay with BI-2536 + Foretinib (first compound 0.3162 µM); 0.138 with BI-2536 + Foretinib (first compound 1 µM); 0.535 in the assay with NPK76-II-72-1 + AZD7762 (first compound 0.01 µM). The relative viability came to 0.645 with NPK76-II-72-1 + AZD7762 (first compound 0.03162 µM); 0.771 with NPK76-II-72-1 + AZD7762 (first compound 0.1 µM); 0.569 in the assay with NPK76-II-72-1 + AZD7762 (first compound 0.3162 µM); 0.761 with NPK76-II-72-1 + AZD7762 (first compound 1 µM); 0.805 in the assay with NPK76-II-72-1 + Olaparib (first compound 0.01 µM); 0.908 in the assay with NPK76-II-72-1 + Olaparib (first compound 0.03162 µM). The figures for the relative viability with NPK76-II-72-1 + Olaparib (first compound 0.1 µM), in the assay with NPK76-II-72-1 + Olaparib (first compound 0.3162 µM) and in the assay with NPK76-II-72-1 + Olaparib (first compound 1 µM) were 0.739, 0.743 and 0.982, respectively.
Take SW 1573: the relative viability came out at 0.878 in the assay with BI-2536 + Foretinib (first compound 0.01 µM); 0.91 with BI-2536 + Foretinib (first compound 0.03162 µM); 0.936 with BI-2536 + Foretinib (first compound 0.1 µM); 0.196 with BI-2536 + Foretinib (first compound 0.3162 µM); 0.158 with BI-2536 + Foretinib (first compound 1 µM); 0.774 with BI-2536 + Crizotinib (first compound 0.01 µM). Besides, the relative viability in the assay with BI-2536 + Crizotinib (first compound 0.03162 µM) worked out at 0.905; with BI-2536 + Crizotinib (first compound 0.1 µM), 0.708; in the assay with BI-2536 + Crizotinib (first compound 0.3162 µM), 0.17; with BI-2536 + Crizotinib (first compound 1 µM), 0.126; with NPK76-II-72-1 + Olaparib (first compound 0.01 µM) it was 0.437; with NPK76-II-72-1 + Olaparib (first compound 0.03162 µM) it was 0.625. In addition, the relative viability worked out at 0.495 with NPK76-II-72-1 + Olaparib (first compound 0.1 µM), 0.488 with NPK76-II-72-1 + Olaparib (first compound 0.3162 µM) and 0.473 with NPK76-II-72-1 + Olaparib (first compound 1 µM).
